Assay results published in patent US11149029B2, “Salts of IJAK inhibitors and methods of using the same” (AstraZeneca AB, priority 2018, dated 2021).
Where “and” joins values, the source holds several entries; their conditions need not be identical. Equal values may be shown once. Where a name gives a salt, the structure may show the parent alone.

Assays:
[1] = Gravimetric vapor sorption analysis (GVS), water absorption 0-80% relative humidity; type: physicochemical; details: for Water absorption 0-80% RH (% w/w): gravimetric vapor sorption
[2] = Weight loss on heating from room temperature to 120° C.; type: physicochemical; details: heating from room temperature (RT) to 120° C.
Method: From the crystal structure (performed using single crystal X-ray diffraction, SXRD) of the free base compound of Formula (Ia), it was determined that the form was a non-stoichiometric hydrate.
Accordingly, a salt screen was performed and out of 20 counter ions tested, three salts (phosphoric, sulfuric and xinafoic salt) were scaled up (5 g) and further analysis was performed. […] (sulfuric salt) and 5.4% w/w RT−120° C. (phosphoric salt).
Screening was performed at Almac including over 110 solvent and non-solvent based screening experiments.

[3] = listed as free base compound of Formula (Ia)

Structure (SMILES): COC[C@H](C(=O)Nc1cccc2c(-c3nc(Nc4cccc(S(C)(=O)=O)c4F)ncc3F)c[nH]c12)N1CCN(C)CC1 [Free base compound of Formula (Ia), (R)—N-(3-(5-fluoro-2-(2-fluoro-3-(methylsulfonyl)phenylamino)pyrimidin-4-yl)-1H-indol-7-yl)-3-methoxy-2-(4-methylpiperazin-1-yl)propanamide]
- Hygroscopicity (in words) [1]: slightly hygroscopic
- Water absorption 0-80% RH (% w/w) [1]: ~1.7 % w/w
- Water absorption 0-80% RH (% w/w) [1, 3]: 2 % w/w and 1.7 % w/w
- Weight loss RT-120° C. (% w/w) [2]: ~5 % w/w
- Weight loss RT-120° C. (% w/w) [2, 3]: 5 % w/w

Structure (SMILES): COC[C@H](C(=O)Nc1cccc2c(-c3nc(Nc4cccc(S(C)(=O)=O)c4F)ncc3F)c[nH]c12)N1CCN(C)CC1 [Xinafoate salt of compound of Formula (Ia)] [4-{(2R)-1-[(3-{5-fluoro-2-[2-fluoro-3-(methanesulfonyl)anilino]pyrimidin-4-yl}-1H-indol-7-yl)amino]-3-methoxy-1-oxopropan-2-yl}-1-methylpiperazin-1-ium; 1-hydroxynaphthalene-2-carboxylate]
- Hygroscopicity (in words) [1]: non-hygroscopic
- Water absorption 0-80% RH (% w/w) [1]: ~0.2 % w/w
- Water absorption 0-80% RH (% w/w) ([1]; listed as xinafoate salt): 0.2 % w/w
- Weight loss RT-120° C. (% w/w) [2]: ~0.2 % w/w
- Weight loss RT-120° C. (% w/w) ([2]; listed as xinafoate salt): 0.2 % w/w
